Source: article PMC9491098, “Discovery of novel drug-like antitubercular hits targeting the MEP pathway enzyme DXPS by strategic application of ligand-based virtual screening” (Chemical Science, 2022)
Values after ≈ are worked out from the molar mass of the structure shown.

What was measured:
[1] = tested on: P. falciparum; settings: Target pathogen: P. falciparum; Fig. 1A; ref 18–26 (fosmidomycin), 15,27–29 (BITZ, TZLP); cited from earlier work
[2] = tested on: IspD; settings: read-out: Activity on target enzyme: IC50; cited from earlier work
[3] = tested on: E. coli strain BL21 (DE3) pQEYAEM; experiment: microbe, parasite or virus in culture; type: cell-based; settings: Escherichia coli, Fig. 6A
[4] = tested on: E. coli strain BL21 (DE3) pET22b-H6[…]; experiment: microbe, parasite or virus in culture; type: cell-based; settings: Escherichia coli, Fig. 6B
[5] = tested on: IspC; settings: Target enzyme: IspC; Fig. 1A; cited from earlier work
[6] = tested on: IspF; settings: read-out: Activity on target enzyme: IC50; cited from earlier work

| Compound | EC50 [1] [nM] | IC50 [2] [nM] | MIC ([3]; [IPTG] 0 mM) [µM] | MIC ([3]; [IPTG] 0.5 mM (E. coli IspC overexpression)) [µM] | MIC ([4]; [IPTG] 0 mM) [µM] | MIC ([4]; [IPTG] 0.5 mM (MtDXPS overexpression)) [µM] | IC50 [5] [nM] | IC50 [6] [nM] |
| --- | --- | --- | --- | --- | --- | --- | --- | --- |
| Cc1ccc(-n2sc3ccccc3c2=O)cc1S(=O)(=O)N1CCOCC1 [BITZ] | 4300 | 450 |  |  |  |  |  |  |
| O=CN(O)CCCP(=O)(O)O [Fosmidomycin, fosmidomycin, reference compound] | 980 |  | 76 ± 14 (≈ 13.9 µg/mL) | > 1000 | 56 ± 8 (≈ 10.3 µg/mL) | 59 ± 10 (≈ 10.8 µg/mL) | 350 |  |
| CCOC(=O)C1=C(C)N=c2s/c(=C\c3cc(Br)c(O)c(Br)c3)c(=O)n2C1c1cccs1 (stereo not shown) [TZLP] | 1500 |  |  |  |  |  |  | 9600 |
